Like-named read-outs stand apart in the source and are kept apart here.
How the values were obtained:
HeLa cells = assay: AQP-mediated osmotic water permeability assay (stopped-flow light scattering); conditions: pre-treatment 20 μM, heat stress 42 °C 3 h
Method: As an orthogonal assay to determine the functional profile of our compounds, the effect on AQP-mediated water permeability was investigated. AQPs are a family of transmembrane proteins involved in the transport of water and other small molecules (e.g., H2O2) through cell membranes. AQP functions are thus critical in ensuring reactive oxygen species (ROS) scavenging and cell survival. […] Briefly, the osmotic water permeability of HeLa cells was measured by a stopped-flow light scattering method and expressed as a percentage of k relative.
Osmotic water permeability was measured in the HeLa cell suspension by the stopped-flow light scattering method, as previously described. The experiments were performed at 25 °C on the stopped-flow apparatus (RX2000, Applied Photophysics, Leatherhead, UK) with a pneumatic drive accessory (DA.1, Applied Photophysics) straightforwardly coupled with a Varian Cary 50 spectrometer (Varian Australia Pty Ltd., Mulgrave, Australia). Briefly, scattered light intensity with a dead time of 6 ms was recorded at a wavelength of 450 nm. […] To evaluate the effect of the test compounds on water permeability, the HeLa cells were divided into different groups: (1) controls, cells incubated at r.t. (21 °C) in the presence of the same volume of methanol as that of the treated cells; (2) heat-stressed cells, cells heat-treated in a water thermostatic and shacking bath at 42 °C for 3 h; (3) heat-stressed cells pre-treated with the test compounds at a 20 µM final concentration (dissolved in methanol).

[1] = tested on: MRC-5 (human normal lung fibroblasts); assay: MTS cytotoxicity assay, MRC-5; type: cell-based
Method: (§1) The early toxicity assays included in vitro cytotoxicity against two human cell lines, namely MRC-5 (human normal lung fibroblasts) and CHME-5 (human microglial cells) and an in vivo zebrafish model. The cell lines MRC-5 and CHME-5 were exposed for 24, 48, and 72 h to increasing concentrations of the tested compounds (from 0.1 to 100 µM).
(§2) A CellTiter 96® AQueous One Solution Cell Proliferation Assay (Promega, Milan, Italy) was used on cells seeded onto a 96-well plate at a density of 9 × 10^3 cells per well. The effect of the test compound was evaluated at four different concentrations (0.1, 1, 10, and 100 μM) after 24 h of continued exposure. Two independent experiments were performed for each concentration. The optical density (OD) of the treated and untreated cells was determined at a wavelength of 490 nm using a plate reader. The data were elaborated with the GraphPad Prism 5 program.

[2] = tested on: CHME-5 (human microglial cells); assay: MTS cytotoxicity assay, CHME-5; type: cell-based; conditions: for cell survival: CHME-5, 100 μM, all time points
Method: as §1, §2

rats = assay: Chung's neuropathic pain model (spinal nerve ligation), von Frey mechanical allodynia; type: in vivo, rat
Description: This procedure involves the surgical binding or tying off of the left L5 and L6 spinal nerves in rats and causes long-lasting behavioral signs of mechanical allodynia and ongoing pain. Mechanical allodynia refers to the perception of pain caused by normally non-painful stimuli, such as touch or pressure. […] Mechanical stimulation was then induced using von Frey filaments, a set of calibrated nylon fibers that are used to apply mechanical pressure to the skin or other tissues to measure pain sensitivity. The mechanical threshold for pain was established with the “up and down method”.
ICR male mice weighing 20–25 g (5 weeks old) and SD rats weighing 200–250 g (7 weeks old) were used in the experiments. All the animals were purchased from SAMTACO (Osan-si, Korea). Six mice/group and eight rats/group were used for this study. Four groups of mice were utilized for the assessment of the antinociceptive activity in the formalin test (one vehicle and three doses; 1, 10, and 20 mg/kg given i.p.), while five groups of rats were used for the assessment of the antinociceptive activity in Chung’s neuropathic pain model (one vehicle and four doses; 5, 10, 25 and 50 mg/kg given i.p.). The ICR mice and SD rats were maintained on a 12 hr light–dark cycle (light on between 7:00 p.m. and 7:00 a.m.) and allowed free access to food and water. The temperature and humidity of the animal room were maintained at 22 ± 2 °C and 50 ± 5%, respectively. In this study, we followed the national guidelines for conducting animal experiments. […] All efforts were made to minimize animal suffering and reduce the number of animals used.
Ligation of the left L5 and L6 spinal nerves in the rats was used as an experimental model of neuropathic pain. […] The surgical procedure was performed according to the method described by Kim and Chung [80]. The left L5 spinal nerve was isolated and ligated tightly with 6–0 black silk. The wound was closed in anatomical layers, with the skin being closed with stainless steel wound clips. The animals were then allowed to recover after the surgery. The behavioral signs representing neuropathic pain (mechanical allodynia) were examined in all the rats for 2 weeks postoperatively. The mechanical withdrawal threshold to the application of a von Frey filament (Stoelting, Wood Dale, IL, USA) was measured by using the up–down method [81].The most sensitive area was first determined by poking various areas of the paw with a von Frey hair. Next, the actual test was conducted by gently poking various areas of the spot with the filament. […] The frequency of foot withdrawal expressed as a percentage was used as the index of mechanical allodynia. […] The results were calculated using the one-way analysis of variance (ANOVA) followed by Bonferroni’s post hoc test. […]

[3] = In vitro metabolic stability in mouse plasma; type: in vitro ADME; conditions: after 240 min of incubation
Method: (§3) The in vitro metabolic stability of compound (R/S)-1d was evaluated in mouse plasma and hepatic microsomes.

[4] = In vitro metabolic stability in mouse liver microsomes; type: in vitro ADME; conditions: oxidative conditions
Method: as §3
Mouse liver microsomes (Sigma Aldrich, CD-1 male, pooled) at 0.5 mg/mL were preincubated with the test compound (R/S)-1d dissolved in DMSO at 1 μM in phosphate buffer 50 mM, pH 7.4, and 3 mM MgCl2 for 10 min at 37 °C [75]. The reaction was then started by adding the cofactor mixture solution (NADP, glucose-6-phosphate, glucose-6-phosphate dehydrogenase in 2% NaHCO3). The samples were taken at 0, 10, 30, 45, and 60 min and added to acetonitrile to stop the reaction (n = 3). The samples were then centrifuged, and the supernatant was analyzed by LC-MS/MS to quantify the amount of compound. A control sample without cofactor was always added to check the chemical stability of the test compound. Two reference compounds of known metabolic stability, 7-ethoxycoumarin (7-EC) and propranolol, were present in parallel testing. A fixed concentration of verapamil was added to every sample as an internal standard for LC-MS/MS analyses. The percentage of the area of the test compound remaining at the various incubation times was calculated with respect to the area of the compound at time 0 min.
The intrinsic clearance (Cli) was calculated by the equation: Cli (μL/min/mg) = k/microsomal conc. × 1000 where k is the rate constant (min^−1) and the microsomal protein conc. = 0.5 mg protein/mL. The rate constant k (min^−1), derived for the exponential decay equation (peak area/IS vs. time), was used to calculate the rate of Cli.
The samples were analyzed under the following conditions: UFLC LC-20 Shimadzu coupled with an API 3200 triple-quadrupole (ABSciex); eluents, (phase A) water + 0.1% trifluoroacetic acid (TFA), (phase B) CH3CN + 0.1% TFA; flow rate, 0.3 mL/min; column, Gemini-Nx 5 μm C18 110A (50 × 2.00 mm) at 35 °C; and injection volume, 5 μL. LC–MS/MS analyses were carried out using an ESI(+) interface in a multiple reaction monitoring mode (MRM). The conditions and MRM transitions applied to the compounds are described in Table 3. […]

mice = assay: Formalin-induced licking paw test; type: in vivo; conditions: Mus musculus
Method: This is a model of persistent pain in which the nociceptive response produced by formalin is quantified by measuring the time spent by the mouse licking the injected paw. The intraplantar administration of formalin (2%, 20 μL) produces a biphasic nocifensive behavioral response (i.e., biting or licking the injected hind paw). The acute nociceptive phase, reflecting the chemical activation of sensory C-fibers, lasts for the first 5 min, while the second inflammatory phase takes place between 20 and 30 min and corresponds with the development of nociceptive sensitization in the dorsal horn of the spinal cord.
ICR male mice weighing 20–25 g (5 weeks old) and SD rats weighing 200–250 g (7 weeks old) were used in the experiments. […]
The formalin-induced licking paw test was modified from the method described by Dubuisson and Dennis [79]. […] Each mouse was then placed in an individual clear plastic observational chamber (15 × 15 × 15), and the pain response was recorded for a period of 30 min. The summation of time (in seconds) spent in licking and biting responses of the injected paw during each 5 min block was measured as an indicator of the pain response. The first period (early phase) was recorded 0–5 min after the injection of formalin, and the second period (late phase) was recorded 20–30 min after the injection. […] The data were expressed as mean values (SEM). […]

[5] = MRC-5, concentrations ≤10 μM, 24, 48 and 72 h
[6] = CHME-5, concentrations ≤10 μM, 24, 48 and 72 h

Row | SMILES | effect on water permeability in heat-stressed HeLa cells (HeLa cells) | cytotoxicity ([1]; MRC-5, 100 µM, 24 h of exposure) | cytotoxicity [1, 5] | cytotoxicity ([2]; CHME-5, 100 µM, 24 h of exposure) | cell survival [2] | cytotoxicity [2, 6] | time the antinociceptive effect was extended (rats; i.p. 50 mg/Kg) | antinociceptive effect (mechanical allodynia) (rats; i.p. 5 and 10 mg/Kg) | time the antinociceptive effect was sustained (rats; i.p. 25 and 50 mg/Kg) | antinociceptive effect (mechanical allodynia) (rats; i.p. 25 and 50 mg/Kg, 30 min after administration) | cytotoxicity ([1]; MRC-5, 100 µM, 24 and 48 h of exposure) | survival rate ([1]; MRC-5, 100 µM, 72 h) | compound remaining unaltered [3] | half-life at 1 μM ([4]; male, CD-1, liver microsomes (pooled), pH 7.4, mouse hepatic microsomes 0.5 mg/mL, 1 μM) [min] | Cli ([4]; mouse hepatic microsomes 0.5 mg/mL, 1 μM) [µL/min/mg] | in vitro clearance classification ([4]; mouse hepatic microsomes) | ED50 (mice; read-out: ED50, first phase of the formalin test) [mg/kg] | ED50 (mice; mice, i.p. 1, 10, 20 mg/Kg 30 min before formalin, 20–30 min, paw licking time, read-out: ED50, second phase of the formalin test) [mg/kg] | cytotoxicity ([2]; CHME-5, 100 µM, 24 and 48 h of exposure) | survival rate ([2]; CHME-5, 100 µM, 72 h)
1 | CN(CCC(CO)c1ccc(-c2ccccc2)cc1)Cc1ccccc1 (stereo not drawn) [Compound 1c, 3-([1,1’-biphenyl]-4-yl)-N-benzyl-4-hydroxy-N-methylbutanamine] | in line with that of S1R antagonists | evident cytotoxic effects | no cytotoxicity | evident cytotoxic effects | reduced the survival | no cytotoxicity |  |  |  |  |  |  |  |  |  |  |  |  |  | 
2 | OCC(CCN1CCCCC1)c1ccc(-c2ccccc2)cc1 (stereo not drawn) [Compound 1d, 2-([1,1’-biphenyl]-4-yl)-4-(piperidin-1-yl)butan-1-ol] | in line with that of S1R antagonists |  | no cytotoxicity |  | reduced the survival | no cytotoxicity | up to 90 min | No significative effect | up to 60 min | restore the normal nociceptive functionality | no significative cytotoxicity | higher than 50% | approximately 100% | 7.2 ± 0.3 | 192 ± 7 | high clearance | 13 | 2.17 | no significative cytotoxicity | higher than 50%

— publication PMC10386076, “Discovery of RC-752, a Novel Sigma-1 Receptor Antagonist with Antinociceptive Activity: A Promising Tool for Fighting Neuropathic Pain” (Pharmaceuticals, 2023)
